Calls of active or inactive are those of the source. The rule behind the calls is not given here.
Assays:
Haemonchus contortus [1] = experiment: Nematocidal activity against Haemonchus contortus Haecon 5 strain isolated from helminth-free Merino weaner sheep after 6 days by larval development assay; format: functional; conditions: for LC50: Haemonchus contortus, Haecon 5 strain, 144 h, read-out: LD50 (the source's name)
[2] = Cytotoxicity against human DU145 cells after 72 hrs by MTT assay; format: cell-based, DU-145
Haemonchus contortus [3] = experiment: Nematocidal activity against Haemonchus contortus Haecon 5 strain isolated from helminth-free Merino weaner sheep at 12.5 to 100 uM after 6 days by larval development assay; format: functional, organism-based
[4] = Cytotoxicity against human SJ-G2 cells after 72 hrs by MTT assay; format: cell-based
[5] = Cytotoxicity against human A431 cells after 72 hrs by MTT assay; format: cell-based, A-431
[6] = Cytotoxicity against human SW480 cells after 72 hrs by MTT assay; format: cell-based
[7] = Cytotoxicity against human HT-29 cells after 72 hrs by MTT assay; format: cell-based
[8] = Cytotoxicity against human H460 cells after 72 hrs by MTT assay; format: cell-based; conditions: NCI-H460 cells
[9] = Cytotoxicity against human MCF7 cells after 72 hrs by MTT assay; format: cell-based
[10] = Cytotoxicity against human A2780 cells after 72 hrs by MTT assay; format: cell-based
[11] = Cytotoxicity against human BE(2)-C cells after 72 hrs by MTT assay; format: cell-based

Compound	LD99 (Haemonchus contortus [1]) [µM]	LC50 (Haemonchus contortus [1]) [µM]	GI50 at 72 h [2] [µM]	inhibition (Haemonchus contortus [3])	GI50 at 72 h [4] [µM]	GI50 at 72 h [5] [µM]	GI50 at 72 h [6] [µM]	GI50 at 72 h [7] [µM]	GI50 at 72 h [8] [µM]	GI50 at 72 h [9] [µM]	GI50 at 72 h [10] [µM]	GI50 at 72 h [11] [µM]
CCCCCCCCCCN1C(=O)[C@@H]2[C@H](C1=O)[C@H]1CC[C@@H]2O1	90	30	–	–	–	–	–	–	–	–	–	–
N#C/C(=C\c1ccc[nH]1)c1ccc(Cl)c(Cl)c1	12.5	7	–	–	–	–	–	–	–	–	–	–
N#C/C(=C\c1ccc[nH]1)c1ccc(Cl)cc1	25	10	–	–	–	–	–	–	–	–	–	–
CCCCCCCCN1C(=O)[C@@H]2[C@H](C1=O)[C@H]1CC[C@@H]2O1	80	40	–	–	–	–	–	–	–	–	–	–
O=C(O)C1C(C(=O)NCCc2ccccc2)[C@H]2CC[C@@H]1O2 (some centres not stated)	–	–	10	inactive	10	10	10	10	10	10	10	10
N#C/C(=C\c1ccc[nH]1)c1ccc(F)cc1	50	10	–	–	–	–	–	–	–	–	–	–
O=C(O)C1C(C(=O)Nc2ccc(CO)cc2)[C@H]2CC[C@@H]1O2 (some centres not stated)	–	–	10	inactive	10	10	10	10	10	10	10	10
O=C(O)C1C(C(=O)Nc2ccccc2)[C@H]2CC[C@@H]1O2 (some centres not stated)	–	–	10	inactive	10	10	10	10	10	10	10	10
CCCCNC(=O)C1C(C(=O)O)[C@@H]2CC[C@H]1O2 (some centres not stated)	–	–	10	inactive	10	10	10	10	10	10	10	10
O=C(O)CCCNC(=O)C1C(C(=O)O)[C@@H]2CC[C@H]1O2 (some centres not stated)	–	–	10	inactive	10	10	10	10	10	10	10	10
O=C(O)c1ccc(NC(=O)C2C(C(=O)O)[C@@H]3CC[C@H]2O3)cc1Cl (some centres not stated)	–	–	10	inactive	10	10	10	10	10	10	10	10
C/C(=N/Nc1ccccc1)c1ccccc1NC(=O)C1C(C(=O)O)[C@@H]2CC[C@H]1O2 (some centres not stated)	–	–	10	inactive	10	10	10	10	10	10	10	10
O=C(O)C1C(C(=O)NCc2ccc(Cl)cc2)[C@H]2CC[C@@H]1O2 (some centres not stated)	–	–	10	inactive	10	10	10	10	10	10	10	10
N#C/C(=C\c1ccc[nH]1)c1ccccc1	100	6	–	–	–	–	–	–	–	–	–	–
